Test results: paper PMC7766124, “Improved Cell Selectivity of Pseudin-2 via Substitution in the Leucine-Zipper Motif: In Vitro and In Vivo Antifungal Activity” (Antibiotics, 2020)
≈ marks a conversion by molar mass, not a printed value. Read-outs that look alike come from different tables or passages of the source. No end group written: not given here.

Key:
[1] = test system: C. krusei; type: cell-based, C. krusei (CCARM 14017); details: 36 h
Excerpt: (§1) Aspergillus flavus (KCTC 6905), A. fumigatus (KCTC 6145), Fusarium moniliforme (KCTC 6149), F. oxysporum (KCTC 16909), C. albicans (KCTC 7270), C. krusei (CCARM 14017), C. parapsilosis (CCARM 14016), C. tropicalis (KCTC 7221), and T. beigelii (KCTC 7707) were obtained from the Korea Collection for Type Cultures (KCTC) and Culture Collection of Antimicrobial Resistant Microbes (CCARM). Mold and yeast fungi were pre-grown on potato dextrose (PD) and yeast extract peptone dextrose (YPD) agars, respectively.
(§2) Antifungal activity of peptides was performed by microtiter plate assays. Fungal conidia from four-day-old molds were collected using 0.08% Triton X-100 (v/v), and pre-cultivated yeast cells were adjusted to 2 × 10^4 spores/mL in 10 mM sodium phosphate buffer (SP, pH 7.2) or 10 mM 2-(N-morpholino)ethanesulfonic acid (MES) buffer (pH 5.5) supplemented with 20% culture medium, followed by addition to peptide solutions (0.25, 0.5, 1, 1.5, 2, 4, 6, 8, 12, 16, 32, 48, and 64 µM) in 96-well microtiter plates. After incubation for 36 h at 28 °C, the hyphal growth of conidia and the proliferation of yeast cells were observed under a light microscope. All assays were performed in triplicate. The MIC values were defined as the lowest concentration of samples that reduced fungal germination (for mold) or cell proliferation (for yeast) by more than 90% [34].

[2] = test system: F. moniliforme; type: cell-based, Fusarium moniliforme (KCTC 6149); details: 36 h
Excerpt: as §1, §2

[3] = test system: A. flavus; type: cell-based, Aspergillus flavus (KCTC 6905); details: 36 h
Excerpt: as §1, §2

[4] = test system: A. fumigatus; type: cell-based, A. fumigatus (KCTC 6145); details: 36 h
Excerpt: as §1, §2

[5] = test system: C. parapsilosis; type: cell-based, C. parapsilosis (CCARM 14016); details: 36 h
Excerpt: as §1, §2

[6] = Calcein leakage from fungus-mimic artificial vesicles; details: fungus-mimic PC/PE/PI/ergosterol vesicles, 20 μM lipid; peptide/lipid molar ratio 0.05; 100% = 0.03% Triton X-100; three independent experiments
Description: (§3) The permeability of peptides in calcein-entrapped artificial liposomes was assayed by measuring calcein leakage. The desired mixtures of lipids (PC/PE/PI/ergosterol, 5:4:1:2 and PC/CH/SM, 2:1:1, weight ratio) were dissolved in chloroform at 10 mg/mL, dried in a glass tube under nitrogen, and then lyophilized overnight to remove residual solvent. The dried lipid films were resuspended in 1 mL of dye solution (80 mM calcein, 10 mM HEPES buffer, pH 7.2) at 50 °C and vortexed, followed by freeze-thawing for nine cycles and extrusion with polycarbonate filters (0.2-μm pore-size) using an Avanti Mini-Extruder (Avanti Polar Lipids Inc., Alabaster, AL, USA). Free calcein was removed using PD-10 desalting columns (GE Healthcare Life Science, Seoul, Korea). Calcein-entrapped vesicles of 20 μM lipids were incubated with peptides at concentrations of […], 0.02, 0.05, and 0.1 molar ratio (peptide/lipid) and the fluorescence was assessed at 480 (Ex) and 520 (Em) nm using a microtiter SpectraMax M5 reader (Molecular Devices). Complete (100%) release was achieved by the addition of 0.03% Triton X-100 (v/v).

[7] = test system: F. oxysporum; type: cell-based, F. oxysporum (KCTC 16909); details: 36 h
Excerpt: as §1, §2

[8] = test system: C. tropicalis cells; assay: SYTOX Green uptake (membrane permeability); type: cell-based; details: SP buffer pH 7.2, 0.5 μM SYTOX Green, peptides 1-64 µM, monitored 30 min
Description: C. tropicalis cells pre-grown at 28 °C were washed and suspended (2 × 10^6 cells/mL) in SP buffer (pH 7.2). The cells were pre-incubated with SYTOX Green (final concentration of 0.5 μM) for 15 min in the dark, followed by adding two-fold serial dilutions of peptides at concentrations of 1 to 64 µM. The fluorescence intensity was monitored for 30 min at 485 (Ex) and 520 (Em) nm using a microtiter SpectraMax M5 reader (Molecular Devices, San Jose, CA, USA).

[9] = test system: T. beigelii; type: cell-based, T. beigelii (KCTC 7707); details: 36 h
Excerpt: as §1, §2

[10] = test system: C. tropicalis; type: cell-based, C. tropicalis (KCTC 7221); details: 36 h
Excerpt: as §1, §2

[11] = Calcein leakage from mammalian-mimic artificial vesicles; details: mammalian-mimic PC/CH/SM vesicles, 20 μM lipid; peptide/lipid molar ratio 0.1; 100% = 0.03% Triton X-100
Description: as §3

[12] = test system: mouse erythrocytes; assay: Hemolytic assay; type: cell-based; details: 64 µM peptide, 8% (v/v) mRBCs, 37 °C, 2 h (method) / 4 h (figure legend)
Description: Mouse blood was collected into sodium heparin-coated tubes (BD Vacutainer; BD Diagnostics, Oxford, UK). The mRBCs were obtained by centrifugation (800× g, 10 min) and washing with PBS. The washed mRBCs were added to a final concentration of 8% (v/v) in 64 µM peptide solution, followed by incubation for 2 h at 37 °C. After centrifugation, each tube was digitally recorded.

[13] = test system: C. albicans; type: cell-based, C. albicans (KCTC 7270); details: 36 h
Excerpt: as §1, §2

[14] = test system: C. tropicalis cells; assay: Mitochondrial superoxide, MitoSOX Red flow cytometry; type: cell-based; details: peptide at MIC for 8 h
Description: Mitochondrial SOX was measured using MitoSOX Red probe. C. tropicalis cells (2 × 10^4 spores/mL) were treated with samples at the appropriate MIC for 8 h and then stained with MitoSOX Red according to the manufacturer’s instructions. The stained cells were acquired by flow cytometry (Attune NxT Acoustic Focusing Cytometer; ThermoFisher Scientific Co., Eugene, OR, USA) at 561 nm by 10,000 total events.

[15] = 10 mM sodium phosphate buffer pH 7.2 with 20% culture medium, 28 °C, triplicate
[16] = acidic: 10 mM MES buffer pH 5.5 with 20% culture medium (value in parentheses), 28 °C, triplicate

For `CC[C@H](C)[C@H](NC(=O)CN)C(=O)NCC(=O)N[C@@H](C)C(=O)N[C@H](C(=O)N[C@@H](CC(C)C)C(=O)N[C@@H](CCCCN)C(=O)N[C@H](C(=O)N[C@@H](CC(C)C)C(=O)N[C@H](C(=O)N[C@H](C(=O)NCC(=O)N[C@@H](CC(C)C)C(=O)N1CCC[C@H]1C(=O)N[C@@H](C)C(=O)N[C@@H](CC(C)C)C(=O)N[C@H](C(=O)N[C@@H](CO)C(=O)N[C@@H](Cc1c[nH]c2ccccc12)C(=O)N[C@H](C(=O)N[C@@H](CCCCN)C(=O)N[C@@H](CCCNC(=N)N)C(=O)N[C@@H](CCCCN)C(=O)N[C@@H](CCCNC(=N)N)C(=O)N[C@@H](CCC(N)=O)C(=O)N[C@@H](CCC(N)=O)C(N)=O)[C@@H](C)CC)[C@@H](C)CC)[C@@H](C)O)[C@@H](C)O)C(C)C)C(C)C` [Melittin, reference compound], the MIC [1, 15] was 8 µM (≈ 22.8 µg/mL), the MIC [1, 16] was 4 µM (≈ 11.4 µg/mL) and the MIC [2, 15] was 32 (32) µM. The MIC [2, 16] was 32 (32) µM, the MIC ([3]; 10 mM sodium phosphate buffer pH 7.2 with 20% culture medium, 28 °C, >90% reduction of germination, triplicate) was 6 µM (≈ 17.1 µg/mL) and the MIC [3, 16] was 4 µM (≈ 11.4 µg/mL). For the same compound, the MIC [4, 15] was 6 µM (≈ 17.1 µg/mL), the MIC [4, 16] was 4 µM (≈ 11.4 µg/mL) and the MIC [5, 15] was 16 µM (≈ 45.5 µg/mL). It also gave an MIC [5, 16] of 8 µM (≈ 22.8 µg/mL), a leakage of calcein [6] of 84.1% and an MIC [7, 15] of 64 µM (≈ 182 µg/mL). For the same compound, the MIC [7, 16] was 32 µM (≈ 91.1 µg/mL), the “SYTOX Green fluorescence intensity” value [8] was “gradual, concentration-dependent increases in fluorescence intensity” and the MIC [9, 15] was 2 (2) µM. The MIC [9, 16] was 2 (2) µM, the MIC [10, 15] was 16 µM (≈ 45.5 µg/mL) and the MIC [10, 16] was 8 µM (≈ 22.8 µg/mL). For the same compound, the calcein efflux [11] was “significant dye leakage”, the “hemolytic effects (hemoglobin release, by visualization)” value [12] was “severe hemolysis” and the MIC ([13]; 10 mM sodium phosphate buffer pH 7.2 with 20% culture medium, 28 °C, >90% reduction of proliferation, triplicate) was 32 µM (≈ 91.1 µg/mL). The MIC [13, 16] was 8 µM (≈ 22.8 µg/mL).

For GLNALKKVKQGKHEAIKLINNHVQ-NH2 [P2-LZ5], the “MitoSOX Red fluorescence (mitochondrial SOX)” value [14] was “significantly increased”, the MIC ([1]; pH 5.5) was 16 µM and the MIC ([1]; pH 7.2) was 48 µM. The MIC ([2]; pH 5.5) was 64 (>64) µM, the MIC ([2]; pH 7.2) was 64 (>64) µM and the MIC ([3]; pH 5.5) was > 64 µM. The MIC ([3]; pH 7.2) was 16 µM, the MIC ([4]; pH 5.5) was > 64 µM and the MIC ([4]; pH 7.2) was 16 µM. The MIC ([5]; pH 5.5) was >64 (>64) µM, the MIC ([5]; pH 7.2) was >64 (>64) µM and the leakage of calcein [6] was 33.8%. The MIC ([7]; pH 5.5) was 16 µM, the MIC ([7]; pH 7.2) was 6 µM and the “SYTOX Green fluorescence intensity” value [8] was “much lower than that in the presence of the other peptides”. The MIC ([9]; pH 5.5) was 32 µM, the MIC ([9]; pH 7.2) was 8 µM and the MIC ([10]; pH 5.5) was 16 µM. For the same compound, the MIC ([10]; pH 7.2) was 8 µM, the MIC ([13]; pH 5.5) was 64 µM and the MIC ([13]; pH 7.2) was 32 µM.
